Source: article PMC10794144, “A novel antibiotic class targeting the lipopolysaccharide transporter” (Nature, 2024)
Converted amounts (≈) assume the structure as drawn.

How the values were obtained:
A. baumannii = assay: microbe, parasite or virus in culture
Summary of the method: (§1)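 MIC was taken as the lowest concentration without visible growth, or past which OD600 no longer fell. Testing followed CLSI M07 and M100 broth microdilution, using 0.5 McFarland-derived inocula in CAMHB (LB for A. baylyi isolates).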

[1] = test system: K. pneumoniae ATCC 700603; assay: microbe, parasite or virus in culture
Summary of the method: as §1

## CN1C(=O)[C@H](CCCCN)NC(=O)[C@H](CCCN)NCc2cccnc2Sc2c(Cl)ccc(-c3ccc(C(=O)O)cc3)c2CNC(=O)[C@@H]1Cc1c[nH]c2ccccc12 [RO7202110]
A. baumannii; 10 MDR isolates, CAMHB, MCPs read at 80% growth inhibition
  MIC range: ≤0.06 − 0.12 mg l^−1
A. baumannii; Acinetobacter baumannii
  MIC90: 0.12 mg/L (≈ 0.145 µM)
A. baumannii; Acinetobacter baumannii, ATCC17978, ATCC 17978, CAMHB, one replicate, MCPs read at 80% growth inhibition
  MIC: ≤ 0.06 mg/L
A. baumannii; Acinetobacter baumannii, ATCC19606, ATCC 19606, CAMHB, MCPs read at 80% growth inhibition
  MIC: ≤ 0.06 mg/L
[1]; Klebsiella pneumoniae, ATCC700603, CAMHB, mode of at least three replicates (RO7036668 one replicate)
  MIC: > 64 mg/L
[1]; Study LGC294355
  MIC 100%: >64 mg/L
[1]; Study LGC295147
  MIC 100%: >64 mg/L
[1]; Study LGC299544
  MIC 100%: >64 mg/L
[1]; Study LGC308175
  MIC 100%: >64 mg/L
